Results published in patent US10137105B2, “Combination treatment protocol” (Bionomics Limited, priority 2015, dated 2018).

Key:
CLL cells on L4.5 stroma = assay: Apoptosis of CLL cells co-incubated 24 h on CD154+ L4.5 stromal cells; format: cell-based, human
Description: (§1) CLL cells were obtained from consented patients at the Norris Cotton Cancer Center. Cells were purified by centrifugation in Ficoll-Paque PLUS from 10 mL of blond. Lymphocytes were plated in RPMI 1640 plus 10% serum at 1×10^6 cells/mL after three washes in PBS+2 mmol/L EDTA. Cells were either incubated immediately with reagents or after 24 h incubation with confluent layers of CD154+ stromal cells (L 4.5) at a ratio of 5:1.
(§2) Cells were incubated for […] with 2 μg/mL Hoechst 33342 at 37° C. and visualized with a fluorescent microscope. At least 200 cells were scored for each sample. The percentage of cells with condensed chromatin was recorded.
The experiments above have shown that CLL cells are usually very sensitive to EX2. However, these cells were isolated from peripheral blood, and the real problem to curing CLL is to be able to kill cells that reside in the lymph node or bone marrow niche. To mimic this niche, we have used L4.5 cells that express CD154. Co-incubation of CLL cells on this stroma for 24 h elicits marked resistance to many drugs including the BCL-2 inhibitor ABT-199 (FIG. 7). […] However, when ABT-199 and EX2 were combined, marked apoptosis was again observed. For example, 100 nM ABT-199 alone induced about 10% apoptosis, whereas when combined with 1 μM EX2, >60% apoptosis was observed within 6 h. The combination of 1 μM EX2 and 1 μM ABT-199 induced about 80% apoptosis. […]

[1] = tested on: normal peripheral lymphocytes; assay: Toxicity to normal peripheral lymphocytes (PARP cleavage, chromatin condensation); format: cell-based, human; conditions: for PARP cleavage / apoptosis in normal peripheral lymphocytes: 0-1 μM EX2, 1-10 nM ABT-199 or 100 nM dinaciclib, each alone
Description: as §2
(§3) Cells were lysed in urea sample buffer [4 mol/L urea, 10% β-mercaptoethanol, 6% w/v SDS, 125 mmol/L Tris (pH 6.8), 0.01% w/v bromphenol blue, and protease/phosphatase inhibitor cocktail] and boiled for 5 min. Proteins were subsequently separated by SDS-PAGE (10 or 15% w/v) and transferred to polyvinylidene difluoride membrane (Millipore). Membranes were blocked with 5% w/v nonfat milk in TBS and 0.05% w/v Tween 20, and were probed with the appropriate primary antibody overnight. Subsequently, membranes were washed in TBS and 0.05% w/v Tween 20, and then incubated with secondary antibody conjugated to horseradish peroxidase. Proteins were visualized by enhanced chemiluminescence (Amersham). Actin was used as a loading control in Western blots.
To test the potential toxicity of EX2, normal peripheral lymphocytes were isolated from a healthy volunteer and incubated with EX2 alone or in combination with ABT-199.

hERG channel = hERG channel (Homo sapiens, UniProt Q12809); assay: hERG channel inhibition, in vitro testing; format: biochemical
Sequence of hERG channel (Q12809 whole entry): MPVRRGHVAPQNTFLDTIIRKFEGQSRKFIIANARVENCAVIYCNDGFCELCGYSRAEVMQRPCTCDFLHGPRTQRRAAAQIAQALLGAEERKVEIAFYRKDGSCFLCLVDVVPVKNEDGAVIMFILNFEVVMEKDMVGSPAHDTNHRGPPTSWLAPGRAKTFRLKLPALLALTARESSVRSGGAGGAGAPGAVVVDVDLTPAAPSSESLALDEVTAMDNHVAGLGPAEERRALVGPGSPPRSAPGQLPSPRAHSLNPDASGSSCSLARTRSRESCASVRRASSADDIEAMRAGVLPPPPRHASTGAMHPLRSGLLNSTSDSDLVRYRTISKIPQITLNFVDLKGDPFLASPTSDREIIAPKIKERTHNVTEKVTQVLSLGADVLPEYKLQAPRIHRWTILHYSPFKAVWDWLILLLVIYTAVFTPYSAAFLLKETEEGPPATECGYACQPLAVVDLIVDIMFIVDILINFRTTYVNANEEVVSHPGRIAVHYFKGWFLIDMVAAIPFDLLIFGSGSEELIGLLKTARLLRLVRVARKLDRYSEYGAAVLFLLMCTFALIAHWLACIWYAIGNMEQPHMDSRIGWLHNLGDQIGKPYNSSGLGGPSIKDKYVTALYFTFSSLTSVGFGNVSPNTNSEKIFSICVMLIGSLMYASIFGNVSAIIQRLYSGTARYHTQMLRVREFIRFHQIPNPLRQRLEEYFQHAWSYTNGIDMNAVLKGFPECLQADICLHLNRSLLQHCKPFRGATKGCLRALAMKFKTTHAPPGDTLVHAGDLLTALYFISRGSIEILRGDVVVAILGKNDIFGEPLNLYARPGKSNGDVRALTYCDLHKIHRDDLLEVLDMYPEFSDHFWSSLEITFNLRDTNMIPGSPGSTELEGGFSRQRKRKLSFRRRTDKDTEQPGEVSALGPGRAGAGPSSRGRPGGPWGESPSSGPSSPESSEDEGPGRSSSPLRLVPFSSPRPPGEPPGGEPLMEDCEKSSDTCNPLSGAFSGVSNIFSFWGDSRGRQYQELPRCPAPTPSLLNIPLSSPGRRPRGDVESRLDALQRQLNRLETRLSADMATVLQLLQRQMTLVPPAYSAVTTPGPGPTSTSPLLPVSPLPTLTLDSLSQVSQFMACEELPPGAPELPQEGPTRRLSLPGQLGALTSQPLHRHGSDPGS
Source text: (§4) Signs of cardiomyopathy were decreased in severity and incidence by 14 days after the 2-cycles of treatment, indicating recovery or reversibility of the effects. The implications of these findings for humans are not clear as these cardiovascular effects were not observed in dog toxicity studies. […] Thus an effect on the hERG channel is expected to be slight, if any, at efficacious doses of Example 2.

advanced solid tumors = assay: Phase I study of Example 2 in subjects with advanced solid tumors; format: in vivo, human
Description: (§5) The recommended Phase 2 dose (RP2D) of Example 2 is evaluated in subjects with advanced solid tumors. Dosing is at a level of 2.1 mg/m^2. The dose of 16 mg/m^2 is deemed to be an MTD. In this study, adverse events are seen across all dose groups. The two most common categories of AE's are gastrointestinal disorders (nausea, vomiting, constipation) and general disorders (predominantly fatigue). Disorders related to bone marrow suppression are rare. Anemia is reported in one patient at a dose level of 8.4 mg/m^2 and in two patients at a dose level of 18.9 mg/m^2. […] Similarly, in a phase 11 study of Example 2 in patients with malignant pleural mesothelioma grade 1-2 gastrointestinal and general disorders are the predominant AE's: in 87% and 50% of patients correspondingly. Grade 3 fatigue is observed in 8% of patients. Finally, grade 1-2 anemia is reported in 33% of study participants.
Thus, this study employs 8 mg/m^2 iv on days 1 and 8 (cycle 1) or 8 and 15 (cycles 2-6) of a 21-day cycle as a starting dose of Example 2. This dose corresponds to a dose one tier below that sufficient to induce disruption of microtubules, yet also is lower than the currently established MTD in a Phase I study of Example 2 in patients with solid tumors. […] The study follows a standard 3+3 Phase I design (between 3 and 6 patients are enrolled at each dose tier). The dose of the drug is escalated to 16 mg/m^2, toxicities permitting. If toxicities emerge at dose level 1, the dose of Example 2 is de-escalated to 4 mg/m^2. […] Preliminary assessment of response and pharmacodynamic endpoints of treatment with Example 2 is assessed at several dose levels allowing for more careful selection of RP2D in CLL.

[2] = 2-cycle rat toxicity study; format: in vivo; conditions: rats, 2 cycles; decreased in severity and incidence by 14 days after treatment
Source text: as §4

CLL cells [3] = assay: Chromatin condensation (Hoechst 33342) apoptosis scoring in freshly isolated CLL cells; format: cell-based, human
Description: as §1, §2

[4] = Cardiovascular safety pharmacology study in telemetered dogs; format: in vivo, dog; conditions: doses up to 0.8 mg/kg (highest dose assessed)
Source text: as §4

CLL cells [5] = assay: Immunoblot analysis (PARP cleavage, pJNK, Noxa) in CLL cells; format: cell-based, human
Description: as §1, §3

[6] = Dog toxicity studies, cardiovascular effects; format: in vivo; conditions: dogs
Source text: as §4

Jeko-1 cells = assay: Kinetics of apoptosis in Jeko-1 cells (Western blots); format: cell-based; conditions: 20 nM EX2 (FIG. 6)
Description: FIG. 6: Kinetics of compounds of Formula (I) induced apoptosis in Jeko-1 cells. Western blots of Jeko-1 cells incubated with 20 nM compounds of Formula (I). “C”=a control cell line incubated with 2 μM vinblastine as a positive control for protein expression.
as §3

[7] = tested on: malignant pleural mesothelioma; assay: Phase II study of Example 2 in patients with malignant pleural mesothelioma; format: in vivo, human
Description: as §5

microtubules in PBMCs = assay: Disruption of microtubules in PBMCs of dosed subjects; format: in vivo, human; conditions: doses of 12.6 and 16 mg/m^2
[8] = healthy volunteer, 6 h, 0-1 μM EX2

For `CC1(C)CCC(CN2CCN(c3ccc(C(=O)NS(=O)(=O)c4ccc(NCC5CCOCC5)c([N+](=O)[O-])c4)c(Oc4cnc5[nH]ccc5c4)c3)CC2)=C(c2ccc(Cl)cc2)C1` [ABT-199, reference compound], the apoptosis (CLL cells on L4.5 stroma; 100 nM ABT-199 alone, CLL cells on stroma, 6 h) was “about 10%”, the “chromatin condensation in normal peripheral lymphocytes” value ([1]; ABT-199 1-10 nM with or without EX2, 6 h) was “no chromatin condensation was observed” and the “PARP cleavage / apoptosis in normal peripheral lymphocytes” value (from here on “PARP cleavage / apoptosis”) ([1]; healthy volunteer, 6 h) was “slight PARP cleavage”.

`COc1cc(C(=O)c2c(C)oc3c(O)c(OC)ccc23)cc(OC)c1OC` [Example 1, 2-Methyl-7-hydroxy-3-(3,4,5-trimethoxybenzoyl)-6-methoxybenzofuran] showed an IC50 (hERG channel) of over 6.71 µM.

In the case of `CCc1cnn2c(NCc3ccc[n+]([O-])c3)cc(N3CCCC[C@H]3CCO)nc12` [Dinaciclib, reference compound], the “PARP cleavage / apoptosis” value ([1]; healthy volunteer, 6 h) is reported as “some apoptosis”.

In the case of `COc1cc(C(=O)c2c(C)oc3c(OP(=O)([O-])[O-])c(OC)ccc23)cc(OC)c1OC.[Na+].[Na+]` [Example 2, Disodium 6-methoxy-2-methyl-3-(3,4,5-trimethoxybenzoyl)benzofuran-7-yl phosphate], the “anemia, patients reported” value (advanced solid tumors; dose level 8.4 mg/m^2) is reported as “one patient”, the “anemia, patients reported” value (advanced solid tumors; dose level 18.9 mg/m^2) is reported as “two patients” and the “grade 4 events” value (advanced solid tumors; dose level 18.9 mg/m^2, same subject) is reported as “Two grade 4 events (myocardial infarction and peripheral neuropathy)”. For the same compound, the MTD (advanced solid tumors; subjects with advanced solid tumors) was 16 mg/m^2, the cardiac finding [2] was “dose-dependent, reversible cardiomyopathy” and the “potency as inducer of apoptosis compared with vinblastine and combretastatin A4” value (CLL cells [3]; chromatin condensation and PARP cleavage, 6 h, 3-6 patients) was “more potent inducer of apoptosis”. The “concentration at which apoptosis (chromatin condensation) was observed” value (CLL cells [3]; freshly isolated CLL cells, media with 0-1 μM EX2, 6 h (FIG. 1)) was 10 to 100 nM, the IC50 (hERG channel) was over 979 µM and the “effects on cardiovascular or respiratory function” value [4] was “no effects on cardiovascular or respiratory function”. For the same compound, the “PARP cleavage in presence of JNK inhibitor VIII” value (CLL cells [5]; 0-1 μM EX2, 6 h, with JNK inhibitor VIII) was “completely prevented”, the “PARP cleavage by 24 h” value (CLL cells [5]; 20 nM, patient 114, incubated up to 24 h (FIG. 5)) was “almost total cleavage of PARP” and the “JNK activation and PARP cleavage five hours after removing EX2” value (CLL cells [5]; 1 h pulse treatment, then 5 h without EX2, versus continuous incubation) was “still observed albeit slightly less”. The “concentration at which apoptosis, pJNK and Noxa expression began to appear” value (CLL cells [5]; 6 h, patient 49 (FIG. 2A)) was 5 nM, the “time to activation of JNK” value (CLL cells [5]; CLL cells incubated with EX2) was “less than one hour” and the “pJNK and NOXA in protein lysates” value (CLL cells [5]; same concentrations of EX2 (10-100 nM), 6 h) was “increased”. For the same compound, the “effects on the cardiovascular system” value [6] was “no effects on the cardiovascular system”, the “time by which apoptosis was complete” value (Jeko-1 cells) was “up to 24 h” and the “apoptosis of co-cultured CLL cells, EX2 alone” value (CLL cells on L4.5 stroma; 1 μM EX2, 24 h on L4.5 stroma then 6 h drug) was “no apoptosis observed”. The “Noxa induction in normal peripheral lymphocytes” value [1, 8] was “no Noxa was induced”, the “pJNK in normal peripheral lymphocytes” value [1, 8] was “activated” and the “PARP cleavage / apoptosis” value ([1]; healthy volunteer, 6 h) was “no significant PARP cleavage or chromatin condensation”. For the same compound, the “Grade 3 fatigue, patients” value [7] was 8%, the “grade 1-2 anemia, study participants” value [7] was 33% and the “grade 1-2 gastrointestinal disorders, patients” value [7] was 87%. The “grade 1-2 general disorders, patients” value [7] was 50% and the “effect on microtubules in PBMCs” value (microtubules in PBMCs) was “briefly disrupt microtubules”.
